Data from patent publication US7427625B2, “Substituted thiatriazaacenaphthylene-6-carbonitrile kinase inhibitors” (Janssen Pharmaceutica, N.V., priority 2006, dated 2008).

Legend:
[1] = molecular target: T1, EGFR (Homo sapiens, UniProt P00533); experiment: EGFR Kinase Assay; type: biochemical; details: for inhibition at 2 µM: test concentration of 2 μM, read-out: EGFR percent inhibition
T1 construct: The intracellular portion of EGFR started at nucleotide 2189 (corresponding to amino acid 667) and ended at the termination codon; made in house; host or cells: Sf9 insect cells (baculovirus)
Outline: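 GST-fused EGFR intracellular domain (aa 667 to end), Sf9-expressed, phosphorylating biotinylated polyGluTyr with 5 μM ATP plus γ-33P ATP in Tris pH 8.0, MgCl2, vanadate, 1 mM DTT; 1 h, 30 °C, streptavidin Flashplate scintillation read. Triplicate 16-point half-log series from 200 uM; IC50 from % inhibition vs log concentration, else % inhibition at 2 μM.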

[2] = molecular target: T2, Aurora-A (Mus musculus, UniProt P97477); experiment: Aurora-A Screening Assay; type: biochemical, murine
T2 construct: followed by the full length protein encoding the murine Aurora-A; polyhistidine (N); made in house; host or cells: sf9 insect cells
T2 sequence (P97477 1-395): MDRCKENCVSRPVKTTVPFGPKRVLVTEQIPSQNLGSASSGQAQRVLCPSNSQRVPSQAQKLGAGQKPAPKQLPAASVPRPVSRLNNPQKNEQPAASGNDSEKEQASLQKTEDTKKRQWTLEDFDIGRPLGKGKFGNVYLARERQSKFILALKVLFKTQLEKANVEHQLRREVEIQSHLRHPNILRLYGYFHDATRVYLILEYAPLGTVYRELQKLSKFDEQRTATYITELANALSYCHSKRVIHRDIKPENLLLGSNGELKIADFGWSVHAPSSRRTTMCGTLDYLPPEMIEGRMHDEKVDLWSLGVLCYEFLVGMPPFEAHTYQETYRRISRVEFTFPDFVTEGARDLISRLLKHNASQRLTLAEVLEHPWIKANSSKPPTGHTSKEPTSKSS

T1 sequence (P00533 669-1210 limits assumed): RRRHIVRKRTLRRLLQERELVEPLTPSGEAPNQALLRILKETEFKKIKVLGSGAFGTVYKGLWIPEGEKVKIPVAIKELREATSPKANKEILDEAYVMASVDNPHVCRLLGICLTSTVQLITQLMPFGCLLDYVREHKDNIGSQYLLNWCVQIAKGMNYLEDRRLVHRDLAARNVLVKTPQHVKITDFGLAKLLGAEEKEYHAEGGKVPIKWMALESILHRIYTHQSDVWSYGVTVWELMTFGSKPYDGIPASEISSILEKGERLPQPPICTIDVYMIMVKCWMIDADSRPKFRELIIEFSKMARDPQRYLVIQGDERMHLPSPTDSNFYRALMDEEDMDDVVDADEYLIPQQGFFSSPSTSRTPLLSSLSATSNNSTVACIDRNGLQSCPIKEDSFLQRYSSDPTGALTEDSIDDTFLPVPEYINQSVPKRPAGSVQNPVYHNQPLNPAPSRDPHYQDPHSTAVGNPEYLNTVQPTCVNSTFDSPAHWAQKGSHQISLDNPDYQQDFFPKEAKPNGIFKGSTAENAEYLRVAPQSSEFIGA

SMILES | IC50 [1] | IC50 [2] | inhibition at 2 µM [1] | inhibition at 1 µM ([2]; test concentration of 1 μM, read-out: Aurora-A percent inhibition)
CN1CCN(CCc2ccc(NC(=O)c3sc4ncc(C#N)c5c4c3NC(=O)N5c3c(Cl)ccc4c3OCO4)cc2)CC1 [Cpd 12, 5-(5-chloro-benzo[1,3]dioxol-4-yl)-6-cyano-4-oxo-4,5-dihydro-3H-1-thia-3,5,8-triaza-acenaphthylene-2-carboxylic acid {4-[2-(4-methyl-piperazin-1-yl)-ethyl]-phenyl}-amide] | 2.7 µM | ~10 µM |  | 
CCOC(=O)c1sc2nc(-c3cc(F)ccc3Cl)c(C#N)c3c2c1NC(=O)N3c1ccncc1 [Cpd 15, 7-(2-chloro-5-fluoro-phenyl)-6-cyano-4-oxo-5-pyridin-4-yl-4,5-dihydro-3H-1-thia-3,5,8-triaza-acenaphthylene-2-carboxylic acid ethyl ester] |  | > 100 µM | 6% | 
CN(C)C1CCN(C(=O)c2sc3ncc(C#N)c4c3c2NC(=O)N4c2c(Cl)ccc3c2OCO3)CC1 [Cpd 41, 5-(5-chloro-benzo[1,3]dioxol-4-yl)-2-(4-dimethylamino-piperidine-1-carbonyl)-4-oxo-4,5-dihydro-3H-1-thia-3,5,8-triaza-acenaphthylene-6-carbonitrile] |  | > 10 µM | 7% | 
N#Cc1c(N2CCOCC2)nc2sc(C(=O)Nc3ccc(CN4CCOCC4)cc3)c3c2c1N(c1c(Cl)ccc2c1OCO2)C(=O)N3 [Cpd 8, 5-(5-chloro-benzo[1,3]dioxol-4-yl)-6-cyano-7-morpholin-4-yl-4-oxo-4,5-dihydro-3H-1-thia-3,5,8-triaza-acenaphthylene-2-carboxylic acid (4-morpholin-4-ylmethyl-phenyl)-amide] |  | 6.47 µM | -6% | 
CCOC(=O)c1sc2nc(O)c(C#N)c3c2c1NC(=O)N3c1ccncc1 [Cpd 14, 6-cyano-7-hydroxy-4-oxo-5-pyridin-4-yl-4,5-dihydro-3H-1-thia-3,5,8-triaza-acenaphthylene-2-carboxylic acid ethyl ester] |  | > 100 µM | -9% | 
N#Cc1cnc2sc(C(=O)Nc3ccc(CCN4CCCCC4)cc3)c3c2c1N(c1c(Cl)ccc2c1OCO2)C(=O)N3 [Cpd 11, 5-(5-chloro-benzo[1,3]dioxol-4-yl)-6-cyano-4-oxo-4,5-dihydro-3H-1-thia-3,5,8-triaza-acenaphthylene-2-carboxylic acid [4-(2-piperidin-1-yl-ethyl)-phenyl]-amide] | 1.6 µM | > 1 µM |  | 
N#Cc1cnc2sc(C(=O)Nc3ccc(CCN4CCCCC4)cc3)c3c2c1N(c1ccc(Oc2ccccc2)cc1)C(=O)N3 [Cpd 48, 6-cyano-4-oxo-5-(4-phenoxy-phenyl)-4,5-dihydro-3H-1-thia-3,5,8-triaza-acenaphthylene-2-carboxylic acid [4-(2-piperidin-1-yl-ethyl)-phenyl]-amide] |  | > 100 µM | 39% | 
Cc1nc2sc(C(=O)Nc3ccc(CN4CCOCC4)cc3)c3c2c(c1C#N)N(c1c(Cl)ccc2c1OCO2)C(=O)N3 [Cpd 9, 5-(5-chloro-benzo[1,3]dioxol-4-yl)-6-cyano-7-methyl-4-oxo-4,5-dihydro-3H-1-thia-3,5,8-triaza-acenaphthylene-2-carboxylic acid (4-morpholin-4-ylmethyl-phenyl)-amide] |  | > 1 µM | 14% | 
COc1cc(NC(=O)c2sc3ncc(C#N)c4c3c2NC(=O)N4c2ccc(Oc3ccccc3)cc2)ccc1CN1CCOCC1 [Cpd 45, 6-cyano-4-oxo-5-(4-phenoxy-phenyl)-4,5-dihydro-3H-1-thia-3,5,8-triaza-acenaphthylene-2-carboxylic acid (3-methoxy-4-morpholin-4-ylmethyl-phenyl)-amide] | 0.093 µM | > 100 µM |  | 
CCOC(=O)c1sc2nc(N3CCOCC3)c(C#N)c3c2c1NC(=O)N3c1c(Cl)ccc2c1OCO2 [Cpd 7, 5-(5-chloro-benzo[1,3]dioxol-4-yl)-6-cyano-7-morpholin-4-yl-4-oxo-4,5-dihydro-3H-1-thia-3,5,8-triaza-acenaphthylene-2-carboxylic acid ethyl ester] |  | > 10 µM | -5% | 

Results, then the compound that gave them:

IC50 [1] | IC50 [2] | inhibition at 2 µM [1] | inhibition at 1 µM ([2]; test concentration of 1 μM, read-out: Aurora-A percent inhibition) | SMILES
0.224 µM | > 100 µM |  |  | N#Cc1cnc2sc(C(=O)Nc3ccc(CN4CCCCC4)cc3)c3c2c1N(c1ccc(Oc2ccccc2)cc1)C(=O)N3 [Cpd 49, 6-cyano-4-oxo-5-(4-phenoxy-phenyl)-4,5-dihydro-3H-1-thia-3,5,8-triaza-acenaphthylene-2-carboxylic acid (4-piperidin-1-ylmethyl-phenyl)-amide]
 | > 10 µM | 7% |  | COc1cc(N2C(=O)Nc3c(C(=O)Nc4ccc(CCN5CCOCC5)cc4)sc4ncc(C#N)c2c34)c(Cl)cc1Cl [Cpd 6, 6-cyano-5-(2,4-dichloro-5-methoxy-phenyl)-4-oxo-4,5-dihydro-3H-1-thia-3,5,8-triaza-acenaphthylene-2-carboxylic acid [4-(2-morpholin-4-yl-ethyl)-phenyl]-amide]
 | 5.93 µM | 23% |  | N#Cc1cnc2sc(C(=O)Nc3ccc(CCN4CCOCC4)cc3)c3c2c1N(c1c(Cl)ccc2c1OCO2)C(=O)N3 [Cpd 13, 5-(5-chloro-benzo[1,3]dioxol-4-yl)-6-cyano-4-oxo-4,5-dihydro-3H-1-thia-3,5,8-triaza-acenaphthylene-2-carboxylic acid [4-(2-morpholin-4-yl-ethyl)-phenyl]-amide]
 | 10.6 µM | 36% |  | N#Cc1cnc2sc(C(=O)Nc3ccc(CN4CCOCC4)cc3)c3c2c1N(c1c(Cl)ccc2c1OCO2)C(=O)N3 [Cpd 4, 5-(5-chloro-benzo[1,3]dioxol-4-yl)-6-cyano-4-oxo-4,5-dihydro-3H-1-thia-3,5,8-triaza-acenaphthylene-2-carboxylic acid (4-morpholin-4-ylmethyl-phenyl)-amide]
 | > 10 µM | 1% |  | COc1cc(N2C(=O)Nc3c(C(=O)Nc4ccc(CN5CCOCC5)cc4)sc4ncc(C#N)c2c34)c(Cl)cc1Cl [Cpd 5, 6-cyano-5-(2,4-dichloro-5-methoxy-phenyl)-4-oxo-4,5-dihydro-3H-1-thia-3,5,8-triaza-acenaphthylene-2-carboxylic acid (4-morpholin-4-ylmethyl-phenyl)-amide]
0.624 µM |  |  | 9% | CC1CCN(Cc2ccc(NC(=O)c3sc4ncc(C#N)c5c4c3NC(=O)N5c3c(Cl)ccc4c3OCO4)cc2)CC1 [Cpd 19, 5-(5-chloro-benzo[1,3]dioxol-4-yl)-6-cyano-4-oxo-4,5-dihydro-3H-1-thia-3,5,8-triaza-acenaphthylene-2-carboxylic acid [4-(4-methyl-piperidin-1-ylmethyl)-phenyl]-amide]
0.152 µM | > 1 µM |  |  | CC(C)(C)OC(=O)NC1CCN(Cc2ccc(NC(=O)c3sc4ncc(C#N)c5c4c3NC(=O)N5c3c(Cl)ccc4c3OCO4)cc2)CC1 [Cpd 46, [1-(4-{[5-(5-chloro-benzo[1,3]dioxol-4-yl)-6-cyano-4-oxo-4,5-dihydro-3H-1-thia-3,5,8-triaza-acenaphthylene-2-carbonyl]-amino}-benzyl)-piperidin-4-yl]-carbamic acid tert-butyl ester]
3.96 µM | 13.3 µM |  |  | CN1CCC(NC(=O)c2sc3ncc(C#N)c4c3c2NC(=O)N4c2c(Cl)ccc3c2OCO3)CC1 [Cpd 10, 5-(5-chloro-benzo[1,3]dioxol-4-yl)-6-cyano-4-oxo-4,5-dihydro-3H-1-thia-3,5,8-triaza-acenaphthylene-2-carboxylic acid (1-methyl-piperidin-4-yl)-amide]
 | > 1 µM | 38% |  | COC1CCN(Cc2ccc(NC(=O)c3sc4ncc(C#N)c5c4c3NC(=O)N5c3c(Cl)ccc4c3OCO4)cc2)CC1 [Cpd 18, 5-(5-chloro-benzo[1,3]dioxol-4-yl)-6-cyano-4-oxo-4,5-dihydro-3H-1-thia-3,5,8-triaza-acenaphthylene-2-carboxylic acid [4-(4-methoxy-piperidin-1-ylmethyl)-phenyl]-amide]
0.85 µM | > 10 µM |  |  | CN(C)C1CCN(Cc2ccc(NC(=O)c3sc4ncc(C#N)c5c4c3NC(=O)N5c3c(Cl)ccc4c3OCO4)cc2)CC1 [Cpd 42, 5-(5-chloro-benzo[1,3]dioxol-4-yl)-6-cyano-4-oxo-4,5-dihydro-3H-1-thia-3,5,8-triaza-acenaphthylene-2-carboxylic acid [4-(4-dimethylamino-piperidin-1-ylmethyl)-phenyl]-amide]
